From patent publication US8030354B2, “Substituted biphenyl GPR40 modulators” (Amgen Inc., priority 2007, dated 2011)

How the values were obtained:
GPR40 [1] = target: T1, GPR40 (Homo sapiens, UniProt O14842); test: Cell-based aequorin assay (CHO cells stably expressing GPR40 and aequorin); set-up: expressed in transfected cells; host or cells: CHO cells stably transfected with GPR40 and aequorin; settings: activation of human GPR40, CHO cells, 0.01% HSA
How it was run: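 CHO cells stably co-expressing GPR40 and aequorin, loaded with coelenterazine (1 ug/mL, 2 h, room temperature) in H/HBSS with 20 mM Hepes and 0.01% fatty acid-free HSA. Serially diluted compounds added; luminescence recorded over 20 s. EC50 from dose-response of maximum relative light units.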

GPR40 [2] = target: T1, GPR40; test: Inositol phosphate accumulation assay (A9_GPR40 cells); assay type: cell-based; set-up: expressed in transfected cells; host or cells: CHO cells stably transfected with GPR40 and aequorin; settings: inositol phosphate assay, A9_GPR40 cells, 1 hour; read-out: IP3 EC50
How it was run: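 A9 cells stably expressing GPR40 were labelled 16 h with 1 μCi/mL ^3H-inositol in inositol-free DMEM with dialysed FBS. Compounds in HBSS/10 mM LiCl with HSA were applied for 1 h at 37° C, then quenched with 20 mM formic acid. Accumulated [^3H] inositol phosphates were counted by SPA.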

T1 sequence (O14842 whole entry): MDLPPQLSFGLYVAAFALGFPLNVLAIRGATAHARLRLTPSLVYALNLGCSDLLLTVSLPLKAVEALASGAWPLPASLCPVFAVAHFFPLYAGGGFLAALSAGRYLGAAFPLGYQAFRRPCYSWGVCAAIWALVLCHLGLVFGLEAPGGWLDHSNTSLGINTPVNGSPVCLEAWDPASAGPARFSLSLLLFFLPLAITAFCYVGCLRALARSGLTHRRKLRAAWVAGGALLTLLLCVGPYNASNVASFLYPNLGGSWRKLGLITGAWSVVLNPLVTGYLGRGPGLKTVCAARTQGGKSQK

EC50 (GPR40 [1]) [nM]	EC50 (GPR40 [2]) [nM]	Compound
100 to 1000	10 to 100	COc1ccc(F)c(-c2ccc(COc3cccc(C(CC(=O)O)CC4CC4)c3)cc2C(C)(C)C)c1 (single isomer, unassigned) [Example 69.4, (3R)-4-Cyclopropyl-3-(3-(((2-(1,1-dimethylethyl)-2′-fluoro-5′-(methyloxy)-1,1′-biphenyl-4-yl)methyl)oxy)phenyl)butanoic acid or (3S)-4-cyclopropyl-3-(3-(((2-(1,1-dimethylethyl)-2′-fluoro-5′-(methyloxy)-1,1′-biphenyl-4-yl)methyl)oxy)phenyl)butanoic acid]
100 to 1000	10 to 100	COc1ccc(F)c(-c2ccc(COc3cccc(C(CC(=O)O)CC4CC4)c3)cc2C2=CCCC2(C)C)c1 (single isomer, unassigned) [Example 69.6, (3R)-4-Cyclopropyl-3-(3-(((2-(5,5-dimethyl-1-cyclopenten-1-yl)-2′-fluoro-5′-(methyloxy)-1,1′-biphenyl-4-yl)methyl)oxy)phenyl)butanoic acid or (3S)-4-cyclopropyl-3-(3-(((2-(5,5-dimethyl-1-cyclopenten-1-yl)-2′-fluoro-5′-(methyloxy)-1,1′-biphenyl-4-yl)methyl)oxy)phenyl)butanoic acid]
10 to 100	< 10	COc1cccc(-c2ccc(COc3cccc(C(CC(=O)O)CC4CC4)c3)cc2C2CCCC2(C)C)c1 (single isomer, unassigned) [Example 69.10]
100 to 1000	10 to 100	COc1cccc(-c2ccc(COc3cccc(C(CC(=O)O)CC4CC4)c3)cc2C2CCCCCC2)c1 (single isomer, unassigned) [Example 69.11, (3R)-3-(3-(((2-Cycloheptyl-3′-(methyloxy)-1,1′-biphenyl-4-yl)methyl)oxy)phenyl)-4-cyclopropylbutanoic acid or (3S)-3-(3-(((2-cycloheptyl-3′-(methyloxy)-1,1′-biphenyl-4-yl)methyl)oxy)phenyl)-4-cyclopropylbutanoic acid]
100 to 1000	< 10	COc1ccc(F)c(-c2ccc(COc3cccc([C@@H](CC(=O)O)CC4CC4)c3)cc2C(C)C(C)C)c1 (single isomer, unassigned) [Example 69.12, (3R)-4-Cyclopropyl-3-(3-(((2-(1,2-dimethylpropyl)-2′-fluoro-5′-(methyloxy)-1,1′-biphenyl-4-yl)methyl)oxy)phenyl)butanoic acid or (3S)-4-cyclopropyl-3-(3-(((2-(1,2-dimethylpropyl)-2′-fluoro-5′-(methyloxy)-1,1′-biphenyl-4-yl)methyl)oxy)phenyl)butanoic acid]
100 to 1000	< 10	COc1ccc(F)c(-c2ccc(COc3cccc(C(CC(=O)O)CC4CC4)c3)cc2C2CCCCCCC2)c1 (single isomer, unassigned) [Example 69.13, (3R)-3-(3-(((2-Cyclooctyl-2′-fluoro-5′-(methyloxy)-1,1′-biphenyl-4-yl)methyl)oxy)phenyl)-4-cyclopropylbutanoic acid or (3S)-3-(3-(((2-cyclooctyl-2′-fluoro-5′-(methyloxy)-1,1′-biphenyl-4-yl)methyl)oxy)phenyl)-4-cyclopropylbutanoic acid]
100 to 1000	100 to 1000	COc1ccc(F)c(-c2ccc(COc3cccc([C@@H](CC(=O)O)CC4CC4)c3)cc2C(O)C(C)(C)C)c1 (single isomer, unassigned) [Example 69.14, (3R)-4-Cyclopropyl-3-(3-(((2′-fluoro-2-(1-hydroxy-2,2-dimethylpropyl)-5′-(methyloxy)-1,1′-biphenyl-4-yl)methyl)oxy)phenyl)butanoic acid or (3S)-4-cyclopropyl-3-(3-(((2′-fluoro-2-(1-hydroxy-2,2-dimethylpropyl)-5′-(methyloxy)-1,1′-biphenyl-4-yl)methyl)oxy)phenyl)butanoic acid]
100 to 1000	10 to 100	C=C(c1cc(COc2cccc([C@@H](CC(=O)O)CC3CC3)c2)ccc1-c1cc(OC)ccc1F)C(C)(C)C (single isomer, unassigned) [Example 69.15, (3R)-4-Cyclopropyl-3-(3-(((2-(1-(1,1-dimethylethyl)ethenyl)-2′-fluoro-5′-(methyloxy)-1,1′-biphenyl-4-yl)methyl)oxy)phenyl)butanoic acid or (3S)-4-cyclopropyl-3-(3-(((2-(1-(1,1-dimethylethyl)ethenyl)-2′-fluoro-5′-(methyloxy)-1,1′-biphenyl-4-yl)methyl)oxy)phenyl)butanoic acid]
10 to 100	10 to 100	COc1ccc(F)c(-c2ccc(COc3cccc([C@@H](CC(=O)O)CC4CC4)c3)cc2CC(C)(C)C)c1 (single isomer, unassigned) [Example 69.16, (3R)-4-Cyclopropyl-3-(3-(((2-(2,2-dimethylpropyl)-2′-fluoro-5′-(methyloxy)-1,1′-biphenyl-4-yl)methyl)oxy)phenyl)butanoic acid or (3S)-4-cyclopropyl-3-(3-(((2-(2,2-dimethylpropyl)-2′-fluoro-5′-(methyloxy)-1,1′-biphenyl-4-yl)methyl)oxy)phenyl)butanoic acid]
100 to 1000	< 10	COc1ccc(F)c(-c2ccc(COc3cccc([C@@H](CC(=O)O)CC4CC4)c3)cc2C(F)C(C)(C)C)c1 (single isomer, unassigned) [Example 69.17, (3R)-4-cyclopropyl-3-(3-(((2′-fluoro-2-(1-fluoro-2,2-dimethylpropyl)-5′-(methyloxy)-1,1′-biphenyl-4-yl)methyl)oxy)phenyl)butanoic acid or (3S)-4-cyclopropyl-3-(3-(((2′-fluoro-2-(1-fluoro-2,2-dimethylpropyl)-5′-(methyloxy)-1,1′-biphenyl-4-yl)methyl)oxy)phenyl)butanoic acid]
100 to 1000	< 10	COc1ccc(F)c(-c2ccc(COc3cccc([C@@H](CC(=O)O)CC4CC4)c3)cc2C(OC)C(C)(C)C)c1 (single isomer, unassigned) [Example 69.18, (3R)-4-Cyclopropyl-3-(3-(((2-(2,2-dimethyl-1-(methyloxy)propyl)-2′-fluoro-5′-(methyloxy)-1,1′-biphenyl-4-yl)methyl)oxy)phenyl)butanoic acid or (3S)-4-cyclopropyl-3-(3-(((2-(2,2-dimethyl-1-(methyloxy)propyl)-2′-fluoro-5′-(methyloxy)-1,1′-biphenyl-4-yl)methyl)oxy)phenyl)butanoic acid]
100 to 1000	100 to 1000	COc1ccc(F)c(-c2ccc(COc3cccc([C@@H](CC(=O)O)CC4CC4)c3)cc2C(O)(C(C)C)C(C)C)c1 (single isomer, unassigned) [Example 69.19, (3R)-4-Cyclopropyl-3-(3-(((2′-fluoro-2-(1-hydroxy-2-methyl-1-(1-methylethyl)propyl)-5′-(methyloxy)-1,1′-biphenyl-4-yl)methyl)oxy)phenyl)butanoic acid or (3S)-4-cyclopropyl-3-(3-(((2′-fluoro-2-(1-hydroxy-2-methyl-1-(1-methylethyl)propyl)-5′-(methyloxy)-1,1′-biphenyl-4-yl)methyl)oxy)phenyl)butanoic acid]
100 to 1000	10 to 100	COc1ccc(F)c(-c2ccc(COc3cccc(C(CC(=O)O)CC4CC4)c3)cc2CC(C)C)c1 (single isomer, unassigned) [Example 69.21, (3R)-4-Cyclopropyl-3-(3-(((2′-fluoro-5′-(methyloxy)-2-(2-methylpropyl)-1,1′-biphenyl-4-yl)methyl)oxy)phenyl)butanoic acid or (3S)-4-cyclopropyl-3-(3-(((2′-fluoro-5′-(methyloxy)-2-(2-methylpropyl)-1,1′-biphenyl-4-yl)methyl)oxy)phenyl)butanoic acid]
100 to 1000	< 10	COc1ccc(F)c(-c2ccc(COc3cccc(C(CC(=O)O)CC4CC4)c3)cc2C(C)C(C)(C)C)c1 (single isomer, unassigned) [Example 69.22]
10 to 100	< 10	COCCO[C@H](c1cc(COc2cccc([C@@H](CC(=O)O)CC3CC3)c2)ccc1-c1cc(OC)ccc1F)C(C)(C)C (single isomer, unassigned) [Example 69.23]
100 to 1000	10 to 100	COc1ccc(F)c(-c2ccc(COc3cccc([C@@H](CC(=O)O)CC4CC4)c3)cc2SC(C)C)c1 (single isomer, unassigned) [Example 69.24, (R)-4-Cyclopropyl-3-[3-(2′-fluoro-2-isopropylsulfanyl-5′-methoxy-biphenyl-4-ylmethoxy)-phenyl]-butyric acid or (S)-4-cyclopropyl-3-[3-(2′-fluoro-2-isopropylsulfanyl-5′-methoxy-biphenyl-4-ylmethoxy)-phenyl]-butyric acid]
100 to 1000	10 to 100	COc1ccc(F)c(-c2ccc(COc3cccc(C(CC(=O)O)CC4CC4)c3)cc2N2CCCCC2)c1 (single isomer, unassigned) [Example 69.28, (3R)-4-Cyclopropyl-3-(3-(((2′-fluoro-5′-(methyloxy)-2-(1-piperidinyl)-1,1′-biphenyl-4-yl)methyl)oxy)phenyl)butanoic acid or (3S)-4-cyclopropyl-3-(3-(((2′-fluoro-5′-(methyloxy)-2-(1-piperidinyl)-1,1′-biphenyl-4-yl)methyl)oxy)phenyl)butanoic acid]
